ChEMBL document CHEMBL5576124, “Discovery of an Exceptionally Orally Bioavailable and Potent HPK1 PROTAC with Enhancement of Antitumor Efficacy of Anti-PD-L1 Therapy” (J Med Chem, 2024)
Activity calls are given as the source filed them. The rule behind the calls is not given here.

Experiments:
[1] = Tmax in Sprague-Dawley rat at 10 mg/kg,po measured upto 24 hrs by LC-MS analysis; format: ADME, organism-based; conditions: in vivo
[2] = MRT in Sprague-Dawley rat at 10 mg/kg,po measured upto 24 hrs by LC-MS analysis; format: ADME, organism-based; conditions: in vivo
[3] = Stability in human liver microsomes assessed as parent compound remaining measured after 30 mins; format: ADME, Microsome; conditions: read-out: Stability
[4] = Stability in human liver microsomes assessed as parent compound remaining measured after 60 mins; format: ADME, Microsome; conditions: read-out: Stability
[5] = Stability in mouse liver microsomes assessed as parent compound remaining measured after 15 mins; format: ADME, Microsome; conditions: read-out: Stability
[6] = Stability in mouse liver microsomes assessed as parent compound remaining measured after 30 mins; format: ADME, Microsome; conditions: read-out: Stability
[7] = Metabolic stability in human liver microsomes assessed as intrinsic clearance; format: ADME, Microsome; conditions: read-out: CLH
[8] = Metabolic stability in human liver microsomes assessed as microsomal intrinsic clearance; format: ADME, Microsome; conditions: read-out: CLH
[9] = Metabolic stability in human liver microsomes assessed as hepatic extraction ratio; format: ADME, Microsome; conditions: read-out: ERH
[10] = Metabolic stability in mouse liver microsomes assessed as intrinsic clearance; format: ADME, Microsome; conditions: read-out: CLH
[11] = Metabolic stability in mouse liver microsomes assessed as microsomal intrinsic clearance; format: ADME, Microsome; conditions: read-out: CLH
[12] = Metabolic stability in mouse liver microsomes assessed as hepatic extraction ratio; format: ADME, Microsome; conditions: read-out: ERH
[13] = molecular target: T1, Protein cereblon/Mitogen-activated protein kinase kinase kinase kinase 1 (Homo sapiens, UniProt Q92918+Q96SW2); experiment: PROTAC activity at CRBN/HPK1 in human Jurkat cells assessed as degradation of HPK1 protein at 1 uM preincubated with thalidomide followed by compound addition incubated for 24 hrs by Western blotting analysis; format: cell-based
T1 sequence (Q92918 whole entry, looked up): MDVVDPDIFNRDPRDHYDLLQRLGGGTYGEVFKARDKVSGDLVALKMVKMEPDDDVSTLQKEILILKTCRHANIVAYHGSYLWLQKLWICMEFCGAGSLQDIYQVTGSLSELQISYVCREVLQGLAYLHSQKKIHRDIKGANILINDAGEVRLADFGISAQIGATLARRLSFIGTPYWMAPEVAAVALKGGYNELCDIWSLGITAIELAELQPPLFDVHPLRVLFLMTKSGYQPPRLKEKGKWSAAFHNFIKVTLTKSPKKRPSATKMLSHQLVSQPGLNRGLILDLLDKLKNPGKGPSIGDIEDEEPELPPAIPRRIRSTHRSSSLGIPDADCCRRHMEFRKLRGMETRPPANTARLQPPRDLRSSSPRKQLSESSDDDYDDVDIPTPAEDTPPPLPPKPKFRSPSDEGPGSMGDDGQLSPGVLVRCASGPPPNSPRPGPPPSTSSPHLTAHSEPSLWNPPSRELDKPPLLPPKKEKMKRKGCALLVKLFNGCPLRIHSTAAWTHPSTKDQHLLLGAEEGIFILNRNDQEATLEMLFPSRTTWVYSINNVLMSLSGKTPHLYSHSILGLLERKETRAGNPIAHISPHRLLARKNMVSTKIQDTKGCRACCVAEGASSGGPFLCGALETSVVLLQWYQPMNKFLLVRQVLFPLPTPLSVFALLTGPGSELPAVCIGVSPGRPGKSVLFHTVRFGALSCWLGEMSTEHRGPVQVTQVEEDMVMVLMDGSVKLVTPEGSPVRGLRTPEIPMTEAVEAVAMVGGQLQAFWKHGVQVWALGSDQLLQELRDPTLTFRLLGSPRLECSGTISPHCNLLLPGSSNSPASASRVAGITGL
T1 sequence (Q96SW2 whole entry, looked up): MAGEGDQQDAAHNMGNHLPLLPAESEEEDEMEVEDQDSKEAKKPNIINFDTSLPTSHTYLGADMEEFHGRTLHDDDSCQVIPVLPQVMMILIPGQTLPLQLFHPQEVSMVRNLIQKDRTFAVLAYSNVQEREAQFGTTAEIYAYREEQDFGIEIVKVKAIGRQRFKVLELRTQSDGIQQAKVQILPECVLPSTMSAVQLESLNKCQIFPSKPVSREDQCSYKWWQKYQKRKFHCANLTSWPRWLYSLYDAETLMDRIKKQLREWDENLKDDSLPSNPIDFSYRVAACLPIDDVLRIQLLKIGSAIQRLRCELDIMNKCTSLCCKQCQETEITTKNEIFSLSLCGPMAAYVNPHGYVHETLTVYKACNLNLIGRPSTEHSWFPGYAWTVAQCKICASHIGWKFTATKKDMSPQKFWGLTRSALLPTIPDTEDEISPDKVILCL

[14] = molecular target: T1, Protein cereblon/Mitogen-activated protein kinase kinase kinase kinase 1; experiment: PROTAC activity at CRBN/HPK1 in human Jurkat cells assessed as degradation of HPK1 protein at 1 uM preincubated with cycloheximide followed by compound addition incubated for 4 hrs by Western blotting analysis; format: cell-based
Jurkat [15] = experiment: Immunostimulatory activity in anti-CD3/CD28 induced human Jurkat cells assessed as increase in IL-2 release at 10 to 10000 nM incubated for 24 hrs in presence of PGE2 and NECA by ELISA; format: functional, cell-based; conditions: dose 10-10000 nM
T-cell line [16] = experiment: Immunostimulatory activity in human T cell assessed as fold increase in IL-2 secretion; format: functional
T-cell line [17] = experiment: Immunostimulatory activity in human T cell assessed as increase in IL-2 secretion at 10 uM relative to control; format: functional
Jurkat [18] = experiment: Antiproliferative activity against human Jurkat cells assessed as inhibition of cell growth at 4 to 10000 nM incubated for 3 days by CCK-8 assay; format: functional, cell-based; conditions: dose 4-10000 nM, time 3.0 day
[19] = molecular target: Mitogen-activated protein kinase kinase kinase kinase 1 (Homo sapiens, UniProt Q92918); experiment: Inhibition of HPK1 (unknown origin)
Sequence of Mitogen-activated protein kinase kinase kinase kinase 1 (Q92918 whole entry): as the sequence (Q92918 whole entry, looked up) above

[20] = molecular target: T2, Mitogen-activated protein kinase kinase kinase kinase 3 (Homo sapiens, UniProt Q8IVH8); experiment: Inhibition of GLK (unknown origin)
T2 sequence (Q8IVH8 whole entry): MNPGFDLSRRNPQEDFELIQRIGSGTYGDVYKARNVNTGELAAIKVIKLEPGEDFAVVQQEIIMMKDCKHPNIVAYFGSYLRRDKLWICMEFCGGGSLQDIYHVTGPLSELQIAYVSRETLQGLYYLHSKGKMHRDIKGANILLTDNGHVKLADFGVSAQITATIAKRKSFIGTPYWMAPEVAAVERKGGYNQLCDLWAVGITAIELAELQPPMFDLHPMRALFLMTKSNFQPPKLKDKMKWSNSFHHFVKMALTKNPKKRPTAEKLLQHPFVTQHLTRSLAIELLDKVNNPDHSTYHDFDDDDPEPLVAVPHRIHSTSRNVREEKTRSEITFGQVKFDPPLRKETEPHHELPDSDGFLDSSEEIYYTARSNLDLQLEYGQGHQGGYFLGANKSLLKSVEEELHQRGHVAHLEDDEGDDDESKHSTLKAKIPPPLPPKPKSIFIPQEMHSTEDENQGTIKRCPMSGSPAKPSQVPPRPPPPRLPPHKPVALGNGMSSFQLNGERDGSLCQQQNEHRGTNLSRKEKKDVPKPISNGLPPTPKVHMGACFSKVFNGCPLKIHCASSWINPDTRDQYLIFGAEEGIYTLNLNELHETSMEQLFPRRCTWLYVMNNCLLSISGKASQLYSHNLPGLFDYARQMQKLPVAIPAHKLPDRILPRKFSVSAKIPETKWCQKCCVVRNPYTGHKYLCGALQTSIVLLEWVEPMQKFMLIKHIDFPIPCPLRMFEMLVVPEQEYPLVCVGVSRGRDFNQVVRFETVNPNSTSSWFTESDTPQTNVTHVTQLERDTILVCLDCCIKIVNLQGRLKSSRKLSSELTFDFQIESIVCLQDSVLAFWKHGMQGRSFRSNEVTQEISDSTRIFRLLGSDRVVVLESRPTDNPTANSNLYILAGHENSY

Jurkat [21] = experiment: Immunostimulatory activity in anti-CD3/CD28 induced human Jurkat cells assessed as downregulation of NF-kappaB phosphorylation by Western blotting analysis; format: functional, cell-based
Jurkat [22] = experiment: Immunostimulatory activity in anti-CD3/CD28 induced human Jurkat cells assessed as upregulation of ERK expression by Western blotting analysis; format: functional, cell-based
Jurkat [23] = experiment: Immunostimulatory activity in anti-CD3/CD28 induced human Jurkat cells assessed as upregulation of JNK expression by Western blotting analysis; format: functional, cell-based
Jurkat [24] = experiment: Immunostimulatory activity in anti-CD3/CD28 induced human Jurkat cells assessed as upregulation of ERK phosphorylation by Western blotting analysis; format: functional, cell-based
[25] = Half life in ICR mouse at 1 mg/kg,iv measured upto 24 hrs by LC-MS analysis; format: ADME, organism-based; conditions: in vivo
[26] = Tmax in ICR mouse at 1 mg/kg,iv measured upto 24 hrs by LC-MS analysis; format: ADME, organism-based; conditions: in vivo
[27] = Half life in ICR mouse at 10 mg/kg,po measured upto 24 hrs by LC-MS analysis; format: ADME, organism-based; conditions: in vivo
[28] = Cmax in ICR mouse at 10 mg/kg,po measured upto 24 hrs by LC-MS analysis; format: ADME, organism-based; conditions: in vivo
[29] = AUC (0 to t) in ICR mouse at 10 mg/kg,po measured upto 24 hrs by LC-MS analysis; format: ADME, organism-based; conditions: in vivo
[30] = Bioavailability in ICR mouse at 10 mg/kg,po or 1 mg/kg,iv measured upto 24 hrs by LC-MS analysis; format: ADME, organism-based; conditions: in vivo
CT26 = experiment: Antitumor activity against mouse CT26 cells implanted BALB/c mouse model assessed as tumor growth inhibition at 25 mg/kg,po administrated once daily for 15 days in presence of anti-PD-L1 antibody relative to control; format: functional; conditions: CT26, 360 h, time 15 day, read-out: TGI
[31] = molecular target: T1, Protein cereblon/Mitogen-activated protein kinase kinase kinase kinase 1; experiment: PROTAC activity at CRBN/HPK1 in human Jurkat cells assessed as downregulation of GLK expression by Western blotting analysis; format: cell-based
[32] = molecular target: T1, Protein cereblon/Mitogen-activated protein kinase kinase kinase kinase 1; experiment: PROTAC activity at CRBN/HPK1 in human Jurkat cells assessed as downregulation of KHS expression by Western blotting analysis; format: cell-based
[33] = molecular target: T1, Protein cereblon/Mitogen-activated protein kinase kinase kinase kinase 1; experiment: PROTAC activity at CRBN/HPK1 in human Jurkat cells assessed as upregulation of GCK expression by Western blotting analysis; format: cell-based
[34] = molecular target: T1, Protein cereblon/Mitogen-activated protein kinase kinase kinase kinase 1; experiment: PROTAC activity at CRBN/HPK1 in human Jurkat cells assessed as upregulation of HGK expression by Western blotting analysis; format: cell-based

SMILES: Cc1cc(-c2c[nH]c3ncc(-c4ccc(C5CCN(C6CN(c7ccc8c(c7)C(=O)N(C7CCC(=O)NC7=O)C8=O)C6)CC5)cc4)nc23)ccc1C(=O)N(C)C (stereo not given)
- Tmax [1]: 1 h
- MRT [2]: 9.62 h
- remaining at 0.5 h [3]: 98.3%
- remaining at 1 h [4]: 94.5%
- remaining at 0.25 h [5]: 85.5%
- remaining at 0.5 h [6]: 70.3%
- microsomal CLint [7]: 1.4 µL/min/mg
- CLint scaled [8]: 5.54 mL/min/kg
- hepatic extraction ratio [9]: 0.058
- microsomal CLint [10]: 18.4 µL/min/mg
- CLint scaled [11]: 16.6 mL/min/kg
- hepatic extraction ratio [12]: 0.444
- Activity [13]: Active
- Activity [14]: Active
- Activity (Jurkat [15]): inactive
- fold change (FC) (T-cell line [16]): 70
- Activity (T-cell line [17]): 2361.07%
- Activity (Jurkat [18]): inactive
- IC50 [19]: 30.9 nM
- IC50 [20]: > 500 nM
- Activity (Jurkat [21]): Active
- Activity (Jurkat [22]): Active
- Activity (Jurkat [23]): Active
- Activity (Jurkat [24]): Active
- half-life [25]: 188 min
- Tmax [26]: 4.8 min
- half-life [27]: 260 min
- Cmax [28]: 10900 ng/mL
- AUC(0-t) at 24 h [29]: 137 µg·h/mL
- bioavailability [30]: 81.7%
- inhibition in vivo at 25 mg/kg (CT26): 65.6%
- Activity [31]: Active
- Activity [32]: Active
- Activity [33]: inactive
- Activity [34]: inactive
